Consider 40 compounds from ChEMBL document CHEMBL1126249, “Synthesis and antiviral activity of deoxy analogs of 1-[(2-hydroxyethoxy)methyl]-6-(phenylthio)thymine (HEPT) as potent and selective anti-HIV-1 agents” (J Med Chem, 1992).

SMILES strings stand for the structures.

As a reminder, the EC50 is the concentration that produces a half-maximal response. A higher EC50 goes with a less potent agent. The CC50 is the concentration that lowers cell viability or growth by half. A higher CC50 goes with better tolerance by the cells.

Experiment [1] concerns MT4. The experiment is described as follows: Ratio of the EC50 against HIV-1 infected MT-4 cells and CC50 against mock infected MT-4 cells. It counts as functional.
In experiment [2] the test system is Human immunodeficiency virus 1. The experiment is described as follows: Effective concentration required for 50% protection of MT-4 cells against the cytopathic effect of HIV-1. In kind it is functional, organism-based. The conditions noted are these: Human immunodeficiency virus 1, MT4. Background: Damage to the host cells serves as the signal in cytopathic effect assays.

A short description of experiment [3]: Concentration required to reduce viability of mock-infected MT-4 cells. In kind it is functional. The conditions noted are these: Homo sapiens, MT4.
Experiment [4] is described as follows: Concentration required to reduce viability of Mock infected PBL (peripheral blood lymphocytes) cells. It counts as functional. The conditions noted are these: Homo sapiens.
A short description of experiment [5]: Concentration required to inhibit replication of HIV-1 HTLV-IIIB strain in PBL (peripheral blood lymphocytes) cells. In kind it is functional, cell-based. The conditions noted are these: Homo sapiens.
The subject of experiment [6] is MT4. The experiment can be described thus: Concentration to required to reduce viability of Mock infected MT-4 cells. It counts as functional. The conditions noted are these: Homo sapiens.
The subject of experiment [7] is MT4. The experiment is described as follows: Concentration required to inhibit replication of HIV-2 LAV-2rod strain in MT-4 cells. It counts as functional, cell-based. The settings on record: Homo sapiens.
In experiment [8] the test system is MT4. The experiment is described as follows: Cytotoxicity to required to reduce viability of Mock infected MT-4 cells of LAV-2rod strain against HIV-2 replication. In kind it is functional. The settings on record: Homo sapiens.

On to `CCc1c(Sc2ccccc2)n(COCc2ccc(Cl)cc2)c(=S)[nH]c1=O`, for which the Selectivity index in experiment [1] is above 1670. It took 12 nM to reach a half-maximal effect in experiment [2] (EC50). Further, in experiment [3], the CC50 was above 20 µM.

For `Cc1cn([C@H]2C[C@H](N=[N+]=[N-])[C@@H](CO)O2)c(=O)[nH]c1=O` [ZIDOVUDINE], the CC50 in experiment [4] worked out at 26 µM; in experiment [6], 7.8 µM. Moreover, the results for the EC50 in experiment [5] and in experiment [7] were 1.4 nM and 0.0028 µM, respectively. Further, in experiment [1], the Selectivity index is reported as 2600.

With `CCOCn1c(Sc2cc(Cl)cc(Cl)c2)c(CC)c(=O)[nH]c1=O`, the Selectivity index in experiment [1] stood at 6080. Besides, the EC50 in experiment [2] amounted to 7.4 nM. Further, the CC50 in experiment [3] amounted to 45 µM.

Take `CCOCn1c(Sc2ccccc2)c(C)c(=O)[nH]c1=O`: in experiment [1], the Selectivity index was determined as 700. Moreover, the midpoint of the response in experiment [2], the EC50, lay at 330 nM.

For `Cc1c(Sc2ccccc2)n(C)c(=O)[nH]c1=O`, in experiment [1], the Selectivity index is listed as below 1. Further, the EC50 in experiment [2] was above 150000 nM. In experiment [3], this compound yielded a CC50 of 150 µM.

As to `COCCOCn1c(Sc2ccccc2)c(C)c(=O)[nH]c1=O`, in experiment [1], the Selectivity index was determined as 34. In addition, the EC50 in experiment [2] worked out at 8700 nM.

With `CCOCn1c(Sc2cc(C)cc(C)c2)c(CC)c(=O)[nH]c1=S`, the CC50 is 33 µM in experiment [4], above 100 µM in experiment [6] and above 100 µM in experiment [3]. Also, the EC50 in experiment [5] is 2.2 nM; in experiment [7], above 100 µM; in experiment [2], 4.4 nM. In experiment [1], the Selectivity index was above 22700.

With `CCc1c(Sc2ccccc2)n(COC2CCCCC2)c(=O)[nH]c1=O`, in experiment [1], the Selectivity index is on record as above 25. In addition, in experiment [2], a half-maximal effect (EC50) was put at 4000 nM. Besides, in experiment [3], the CC50 is above 100 µM.

`CCc1c(Sc2cc(C)cc(C)c2)n(COCc2ccccc2)c(=O)[nH]c1=O`: the Selectivity index in experiment [1] is listed as above 6250. Also, the EC50 in experiment [2] came out at 3.2 nM. In experiment [3], this compound came in with a CC50 above 20 µM.

As for `Cc1c(O)nc(O)nc1Sc1ccccc1`, in experiment [1], the Selectivity index was below 1. Further, the EC50 in experiment [2] is above 250000 nM. In addition, the midpoint of cytotoxicity in experiment [3], the CC50, lay at 250 µM.

Consider `Cc1c(Sc2ccccc2)n(COCCOCc2ccccc2)c(=O)[nH]c1=O`, for which, in experiment [1], the Selectivity index is given as 2.3. This compound also had an EC50 in experiment [2] above 20000 nM.

Regarding `CCOCn1c(Sc2ccccc2)c(C2CC2)c(=O)[nH]c1=S`, the Selectivity index in experiment [1] is recorded as 484. For the same compound, in experiment [2], it took 95 nM to reach a half-maximal effect (EC50). Moreover, the CC50 in experiment [3] came to 46 µM.

On to `CCc1c(Sc2ccccc2)n(COCc2ccccc2)c(=O)[nH]c1=O`, for which the CC50 in experiment [4] amounted to 43 µM; in experiment [6], 30 µM. Moreover, the EC50 in experiment [5] is 1.5 nM; in experiment [7], above 30 µM; in experiment [2], 5.9 nM. For the same compound, the Selectivity index in experiment [1] was 5800.

As to `CCn1c(Sc2ccccc2)c(C)c(=O)[nH]c1=O`, the Selectivity index in experiment [1] is on record as 43. Also, the EC50 in experiment [2] was 2200 nM. The compound further came in with a CC50 in experiment [3] of 94 µM.

Consider `CCc1c(Sc2ccccc2)n(COC2CCCCC2)c(=S)[nH]c1=O`, for which the Selectivity index in experiment [1] came out at 139. In experiment [2], this compound returned an EC50 of 1600 nM. Further, it took 223 µM to reach half-maximal cytotoxicity in experiment [3] (CC50).

For `CCCCCOCCOCn1c(Sc2ccccc2)c(C)c(=O)[nH]c1=O`, in experiment [1], the Selectivity index was below 1. In experiment [2], this compound displayed an EC50 above 55000 nM. Besides, in experiment [3], the midpoint of cytotoxicity, the CC50, lay at 55 µM.

On to `CC(C)c1c(Sc2ccccc2)n(COCc2ccccc2)c(=O)[nH]c1=O`, for which, in experiment [1], the Selectivity index is recorded as above 7410. Also, it took 2.7 nM to reach a half-maximal effect in experiment [2] (EC50). Further, the CC50 in experiment [3] was above 20 µM.

On to `CCc1c(Sc2ccccc2)n(COCCc2ccccc2)c(=O)[nH]c1=O`, for which, in experiment [1], the Selectivity index was 396. In addition, the concentration for a half-maximal effect (EC50) in experiment [2] turned out to be 96 nM. This compound registered a CC50 in experiment [3] of 38 µM.

Consider `Cc1c(Sc2ccccc2)n(COCc2ccccc2)c(=O)[nH]c1=O`, for which the Selectivity index in experiment [1] came to 1080. For the same compound, in experiment [2], the EC50 amounted to 88 nM.

`COCn1c(Sc2ccccc2)c(C)c(=O)[nH]c1=O`: the Selectivity index in experiment [1] is listed as 116. In experiment [2], this compound came in with an EC50 of 2100 nM. In addition, in experiment [3], it took 244 µM to reach half-maximal cytotoxicity (CC50).

With `CCc1c(Sc2ccccc2)n(COC(C)C)c(=O)[nH]c1=O`, the Selectivity index in experiment [1] came to 421. In experiment [2], this compound came in with an EC50 of 340 nM. In experiment [3], this compound gave a CC50 of 143 µM.

For `Cc1c(Sc2ccccc2)n(COCC[Si](C)(C)C)c(=O)[nH]c1=O`, in experiment [1], the Selectivity index is given as below 1. Further, in experiment [2], the EC50 was above 32000 nM. In addition, the CC50 in experiment [3] is 32 µM.

With `CCc1c(Sc2ccccc2)n(COCc2ccc(C)cc2)c(=S)[nH]c1=O`, in experiment [1], the Selectivity index is above 256. Besides, in experiment [2], the EC50 was found to be 78 nM. In experiment [3], this compound showed a CC50 above 20 µM.

`CCCOCn1c(Sc2ccccc2)c(C)c(=O)[nH]c1=O`: the Selectivity index in experiment [1] amounted to 41. Also, a half-maximal response in experiment [2] (EC50) required 3600 nM. In addition, half-maximal cytotoxicity in experiment [3] (CC50) was put at 147 µM.

In the case of `CCOCn1c(Sc2ccccc2)c(C(C)C)c(=O)[nH]c1=S`, the Selectivity index in experiment [1] is on record as above 7140. The same compound displayed an EC50 in experiment [2] of 14 nM. Further, the CC50 in experiment [3] was above 100 µM.

In the case of `CCOCn1c(Sc2ccccc2)c(C2CC2)c(=O)[nH]c1=O`, the Selectivity index in experiment [1] is reported as 2240. Further, the EC50 in experiment [2] was 100 nM. Besides, it took 224 µM to reach half-maximal cytotoxicity in experiment [3] (CC50).

Take `CCc1c(Sc2ccccc2)n(COCC2CCCCC2)c(=S)[nH]c1=O`: the Selectivity index in experiment [1] was above 286. Further, in experiment [2], the concentration for a half-maximal effect (EC50) worked out at 350 nM. Besides, the CC50 in experiment [3] was above 100 µM.

As to `CCOCn1c(Sc2ccccc2)c(CC)c(=O)[nH]c1=S`, the figures for the CC50 in experiment [4], in experiment [6] and in experiment [3] were 35 µM, 50 µM and 81 µM, respectively. The EC50 in experiment [5] is 13 nM; in experiment [7], above 50 µM; in experiment [2], 26 nM. The Selectivity index in experiment [1] is on record as 3120.

`CCOCn1c(Sc2ccccc2)c(C(C)C)c(=O)[nH]c1=O`: in experiment [1], the Selectivity index was 8830. In experiment [2], this compound had an EC50 of 12 nM. The CC50 in experiment [3] was found to be 106 µM.

For `CC(C)c1c(Sc2ccccc2)n(COCc2ccccc2)c(=S)[nH]c1=O`, the Selectivity index in experiment [1] is above 2940. Further, it took 6.8 nM to reach a half-maximal effect in experiment [2] (EC50). The compound further gave a CC50 in experiment [3] above 20 µM.

Take `CCc1c(Sc2cc(C)cc(C)c2)n(COCc2ccccc2)c(=S)[nH]c1=O`: the Selectivity index in experiment [1] is on record as above 2900. The same compound yielded an EC50 in experiment [2] of 6.9 nM. In experiment [3], the CC50 was above 20 µM.

Consider `CCc1c(Sc2ccccc2)n(COCCc2ccccc2)c(=S)[nH]c1=O`, for which the Selectivity index in experiment [1] is on record as above 220. The EC50 in experiment [2] worked out at 91 nM. Besides, the CC50 in experiment [3] was above 20 µM.

Turning to `CCOCn1c(Sc2cc(Cl)cc(Cl)c2)c(CC)c(=O)[nH]c1=S`, the Selectivity index in experiment [1] is recorded as 3460. Also, the EC50 in experiment [2] was 13 nM. The midpoint of cytotoxicity in experiment [3], the CC50, lay at 45 µM.

For `CCOCn1c(Sc2cc(C)cc(C)c2)c(CC)c(=O)[nH]c1=O`, the CC50 was 56 µM in experiment [4], above 100 µM in experiment [8] and above 100 µM in experiment [3]. Also, the EC50 is 1.8 nM in experiment [5], above 100 µM in experiment [7] and 5.4 nM in experiment [2]. Moreover, the Selectivity index in experiment [1] is above 18500.

With `CCc1c(Sc2ccccc2)n(CC(C)C)c(=S)[nH]c1=O`, the Selectivity index in experiment [1] was above 455. The compound also had an EC50 in experiment [2] of 220 nM. Besides, the CC50 in experiment [3] is above 100 µM.

Take `CCCCOCn1c(Sc2ccccc2)c(C)c(=O)[nH]c1=O`: the Selectivity index in experiment [1] is listed as 18. A half-maximal response in experiment [2] (EC50) required 4700 nM. For the same compound, the midpoint of cytotoxicity in experiment [3], the CC50, lay at 83 µM.

With `CCOCn1c(Sc2ccccc2)c(CC)c(=O)[nH]c1=O`, the CC50 in experiment [4] was found to be 93 µM; in experiment [6], 146 µM. In addition, the EC50 is 11 nM in experiment [5], above 146 µM in experiment [7] and 19 nM in experiment [2]. For the same compound, the Selectivity index in experiment [1] was found to be 8500.

Regarding `CCc1c(Sc2ccccc2)n(COCC2CCCCC2)c(=O)[nH]c1=O`, in experiment [1], the Selectivity index was found to be 38. A half-maximal effect in experiment [2] (EC50) was put at 450 nM. Further, in experiment [3], it took 17 µM to reach half-maximal cytotoxicity (CC50).

Consider `CCc1c(Sc2ccccc2)n(COCc2ccccc2)c(=S)[nH]c1=O`, for which the CC50 in experiment [4] is 28 µM; in experiment [6], above 100 µM; in experiment [3], above 100 µM. For the same compound, the results for the concentration giving a half-maximal response (EC50) in experiment [5], in experiment [7] and in experiment [2] were 3.7 nM, above 100 µM and 7.8 nM, respectively. Further, in experiment [1], the Selectivity index was above 12800.

As for `CCCCn1c(Sc2ccccc2)c(C)c(=O)[nH]c1=O`, in experiment [1], the Selectivity index came to 74. The same compound gave an EC50 in experiment [2] of 1200 nM. The cytotoxic concentration (CC50) in experiment [3] was found to be 89 µM.
